ChEMBL document CHEMBL1201862, “PubChem BioAssay data set” (2004)
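Cultured in 96-well plates, cells were exposed to test compound for 48 hours across five concentrations. GI50 = concentration required for 50% inhibition of growth.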 The source made the active and inactive calls. No stated cut-off is given here; in the data, active = GI50 up to about 1.1 µM and inactive = higher.

Assays:
Test in all cases: inhibition of tumour cell growth, NCI panel, 48 h
[1] = system: CCRF-CEM
[2] = system: CAKI-1
[3] = system: MCF7
[4] = system: EKVX
[5] = system: NCI-H226
[6] = system: SK-OV-3
[7] = system: SF-295
[8] = system: SNB-19
[9] = system: 786-0
[10] = system: SR
[11] = system: SF-268
[12] = system: OVCAR-4
[13] = system: UACC-257
[14] = system: UO-31
[15] = system: Malme-3M
[16] = system: KM-20L2
[17] = system: SNB-75
[18] = system: MDA-MB-435
[19] = system: MOLT-4
[20] = system: SN12C

Measured: GI50

CN1C(c2ccccc2)CC(=NOCc2ccccc2)CC1c1ccccc1 (stereo unspecified)
inactive: [1] 11.6 µM | [2] 55 µM | [3] 18.6 µM | [4] 41.3 µM | [5] 52.8 µM | [6] 75 µM | [7] 44.2 µM | [8] 44.3 µM | [9] 38.9 µM | [10] 13.6 µM | [11] 24.3 µM | [12] 22.5 µM | [13] 64.7 µM | [14] 43.6 µM | [15] 50.9 µM | [16] > 80.2 µM | [17] 31.4 µM | [18] 16.9 µM | [19] 23.7 µM | [20] 44.6 µM

O=C1CCC(c2ccccc2)C(O)(C(=O)O)C1 (stereo unspecified)
inactive: [1] > 100 µM | [2] > 100 µM | [4] > 100 µM | [5] > 100 µM | [6] > 100 µM | [7] > 100 µM | [8] > 100 µM | [9] > 100 µM | [10] > 100 µM | [11] > 100 µM | [12] > 100 µM | [13] > 100 µM | [14] > 100 µM | [15] > 100 µM | [16] > 100 µM | [17] > 100 µM | [19] > 100 µM | [20] > 100 µM

COC1=CC(=O)C(O)=C(CC2(C)C(C)CCC3(C)C2CCCC3(C)C)C1=O (stereo unspecified)
inactive: [1] 1.91 µM | [2] 3.34 µM | [4] 5.83 µM | [5] 2.77 µM | [6] 18.2 µM | [7] 2.89 µM | [8] 3.58 µM | [9] 3.86 µM | [10] 3.11 µM | [11] 4.37 µM | [12] 4.18 µM | [13] 3.84 µM | [14] 4.49 µM | [15] 4.03 µM | [16] 2.42 µM | [17] 3.89 µM | [19] 2.4 µM | [20] 3.7 µM
